Data published in ChEMBL document CHEMBL5291721, “A preclinical secondary pharmacology resource illuminates target-adverse drug reaction associations of marketed drugs” (Nat Commun, 2023).

Experiments:
[1] = molecular target: T1, Alpha-1A adrenergic receptor (Homo sapiens, UniProt P35348); format: functional, cell-based
T1 sequence (P35348 whole entry): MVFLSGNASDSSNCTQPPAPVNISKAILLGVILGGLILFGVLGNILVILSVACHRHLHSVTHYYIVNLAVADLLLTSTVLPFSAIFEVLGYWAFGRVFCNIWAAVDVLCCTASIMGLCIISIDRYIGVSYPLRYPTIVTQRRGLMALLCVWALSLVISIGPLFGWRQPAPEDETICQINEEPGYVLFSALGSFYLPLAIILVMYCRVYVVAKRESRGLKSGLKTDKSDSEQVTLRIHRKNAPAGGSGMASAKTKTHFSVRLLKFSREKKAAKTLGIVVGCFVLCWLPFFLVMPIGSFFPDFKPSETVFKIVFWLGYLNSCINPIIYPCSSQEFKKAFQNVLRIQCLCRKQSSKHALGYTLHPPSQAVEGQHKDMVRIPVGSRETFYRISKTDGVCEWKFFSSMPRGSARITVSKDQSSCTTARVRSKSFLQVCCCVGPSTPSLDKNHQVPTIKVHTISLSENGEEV

Histamine H2 receptor = Histamine H2 receptor (Homo sapiens, UniProt P25021); format: functional, cell-based
Histamine H2 receptor, sequence (P25021 whole entry): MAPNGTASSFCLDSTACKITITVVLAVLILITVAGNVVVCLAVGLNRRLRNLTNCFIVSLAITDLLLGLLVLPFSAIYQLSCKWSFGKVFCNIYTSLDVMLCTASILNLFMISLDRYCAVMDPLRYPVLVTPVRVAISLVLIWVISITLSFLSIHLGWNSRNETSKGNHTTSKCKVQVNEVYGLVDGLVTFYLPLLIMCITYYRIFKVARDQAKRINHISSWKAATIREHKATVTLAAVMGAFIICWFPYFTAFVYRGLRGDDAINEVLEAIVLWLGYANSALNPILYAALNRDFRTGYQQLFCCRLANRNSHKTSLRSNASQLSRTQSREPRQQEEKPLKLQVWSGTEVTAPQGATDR

Progesterone receptor = molecular target: T2, Progesterone receptor (Homo sapiens, UniProt P06401); format: functional
T2 sequence (P06401 whole entry): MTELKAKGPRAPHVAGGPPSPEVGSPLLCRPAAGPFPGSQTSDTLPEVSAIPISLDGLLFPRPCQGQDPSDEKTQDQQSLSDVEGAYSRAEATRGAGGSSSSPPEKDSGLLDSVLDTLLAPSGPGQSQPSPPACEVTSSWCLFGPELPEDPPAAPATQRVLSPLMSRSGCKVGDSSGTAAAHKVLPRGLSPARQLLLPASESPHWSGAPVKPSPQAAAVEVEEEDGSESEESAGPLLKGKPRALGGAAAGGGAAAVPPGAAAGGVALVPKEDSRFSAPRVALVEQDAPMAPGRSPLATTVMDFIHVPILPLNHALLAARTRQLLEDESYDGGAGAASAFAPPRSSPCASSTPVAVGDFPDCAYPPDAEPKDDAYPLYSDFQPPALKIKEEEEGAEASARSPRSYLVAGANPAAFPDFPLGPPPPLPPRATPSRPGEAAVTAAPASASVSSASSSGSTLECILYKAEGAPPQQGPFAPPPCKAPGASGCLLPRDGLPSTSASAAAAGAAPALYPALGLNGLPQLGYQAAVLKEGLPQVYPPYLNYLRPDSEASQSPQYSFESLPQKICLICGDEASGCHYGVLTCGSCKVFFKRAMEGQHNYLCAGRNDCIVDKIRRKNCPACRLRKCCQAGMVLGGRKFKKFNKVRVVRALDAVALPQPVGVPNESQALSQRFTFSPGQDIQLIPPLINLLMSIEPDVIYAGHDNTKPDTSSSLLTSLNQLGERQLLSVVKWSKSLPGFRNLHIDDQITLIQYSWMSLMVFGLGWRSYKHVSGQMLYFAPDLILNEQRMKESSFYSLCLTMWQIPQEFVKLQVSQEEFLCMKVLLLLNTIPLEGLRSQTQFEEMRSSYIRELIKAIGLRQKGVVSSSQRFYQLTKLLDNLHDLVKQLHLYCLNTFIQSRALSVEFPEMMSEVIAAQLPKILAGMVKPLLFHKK

[2] = molecular target: T3, 5-hydroxytryptamine receptor 2B (Homo sapiens, UniProt P41595); format: functional, cell-based
T3 sequence (P41595 whole entry): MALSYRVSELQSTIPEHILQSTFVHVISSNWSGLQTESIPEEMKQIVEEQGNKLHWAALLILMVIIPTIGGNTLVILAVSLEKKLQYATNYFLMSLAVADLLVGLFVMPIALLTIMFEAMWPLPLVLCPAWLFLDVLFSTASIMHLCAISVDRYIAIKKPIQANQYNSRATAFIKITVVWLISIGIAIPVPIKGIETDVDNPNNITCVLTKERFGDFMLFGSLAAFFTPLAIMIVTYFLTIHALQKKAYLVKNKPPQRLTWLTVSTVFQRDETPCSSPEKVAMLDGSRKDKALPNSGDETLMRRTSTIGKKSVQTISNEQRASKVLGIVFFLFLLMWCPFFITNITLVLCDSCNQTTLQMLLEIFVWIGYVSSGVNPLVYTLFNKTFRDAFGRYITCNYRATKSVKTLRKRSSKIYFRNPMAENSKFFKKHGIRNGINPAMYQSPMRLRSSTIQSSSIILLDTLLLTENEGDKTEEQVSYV

Histamine H3 receptor = Histamine H3 receptor (Homo sapiens, UniProt Q9Y5N1)
Histamine H3 receptor, sequence (Q9Y5N1 whole entry): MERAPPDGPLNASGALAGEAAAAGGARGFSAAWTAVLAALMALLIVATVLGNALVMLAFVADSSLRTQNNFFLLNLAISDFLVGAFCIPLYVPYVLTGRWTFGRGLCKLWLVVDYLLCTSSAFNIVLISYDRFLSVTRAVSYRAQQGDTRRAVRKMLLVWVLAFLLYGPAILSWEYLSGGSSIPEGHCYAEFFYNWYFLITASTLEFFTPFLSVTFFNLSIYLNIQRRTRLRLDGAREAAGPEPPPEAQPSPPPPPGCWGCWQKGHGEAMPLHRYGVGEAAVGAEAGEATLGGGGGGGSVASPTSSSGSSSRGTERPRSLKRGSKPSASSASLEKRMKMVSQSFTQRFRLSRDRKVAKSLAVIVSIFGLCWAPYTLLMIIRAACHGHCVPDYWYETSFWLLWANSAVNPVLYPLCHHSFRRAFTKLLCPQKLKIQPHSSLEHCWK

Cannabinoid receptor 1 = Cannabinoid receptor 1 (Homo sapiens, UniProt P21554); format: functional, cell-based
Cannabinoid receptor 1, sequence (P21554 whole entry): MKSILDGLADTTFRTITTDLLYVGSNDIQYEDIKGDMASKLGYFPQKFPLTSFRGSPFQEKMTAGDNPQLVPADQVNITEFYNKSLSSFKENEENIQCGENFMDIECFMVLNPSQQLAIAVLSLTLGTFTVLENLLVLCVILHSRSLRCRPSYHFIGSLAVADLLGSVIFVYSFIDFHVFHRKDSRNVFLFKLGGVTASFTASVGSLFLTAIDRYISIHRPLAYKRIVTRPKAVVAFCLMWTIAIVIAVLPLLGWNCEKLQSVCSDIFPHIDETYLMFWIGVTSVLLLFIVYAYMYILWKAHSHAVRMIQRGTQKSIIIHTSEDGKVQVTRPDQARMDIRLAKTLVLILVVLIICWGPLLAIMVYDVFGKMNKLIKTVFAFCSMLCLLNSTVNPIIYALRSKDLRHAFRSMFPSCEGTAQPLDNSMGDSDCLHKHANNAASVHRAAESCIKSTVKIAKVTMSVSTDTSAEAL

Mu-type opioid receptor = Mu-type opioid receptor (Homo sapiens, UniProt P35372)
Mu-type opioid receptor, sequence (P35372 whole entry): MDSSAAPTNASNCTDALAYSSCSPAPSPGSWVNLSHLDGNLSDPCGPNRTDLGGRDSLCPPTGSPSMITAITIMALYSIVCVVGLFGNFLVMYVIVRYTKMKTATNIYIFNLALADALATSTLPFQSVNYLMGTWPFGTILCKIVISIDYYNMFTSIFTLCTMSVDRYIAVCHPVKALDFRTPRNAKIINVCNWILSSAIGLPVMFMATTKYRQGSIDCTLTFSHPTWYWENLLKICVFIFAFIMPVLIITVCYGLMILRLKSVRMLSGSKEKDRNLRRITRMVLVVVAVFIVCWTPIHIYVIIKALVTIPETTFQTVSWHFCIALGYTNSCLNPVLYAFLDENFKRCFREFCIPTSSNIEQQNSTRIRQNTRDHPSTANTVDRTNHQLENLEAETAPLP

[3] = molecular target: T1, Alpha-1A adrenergic receptor
Thromboxane A2 receptor = molecular target: T4, Thromboxane A2 receptor (Homo sapiens, UniProt P21731); format: functional, cell-based
T4 sequence (P21731 whole entry): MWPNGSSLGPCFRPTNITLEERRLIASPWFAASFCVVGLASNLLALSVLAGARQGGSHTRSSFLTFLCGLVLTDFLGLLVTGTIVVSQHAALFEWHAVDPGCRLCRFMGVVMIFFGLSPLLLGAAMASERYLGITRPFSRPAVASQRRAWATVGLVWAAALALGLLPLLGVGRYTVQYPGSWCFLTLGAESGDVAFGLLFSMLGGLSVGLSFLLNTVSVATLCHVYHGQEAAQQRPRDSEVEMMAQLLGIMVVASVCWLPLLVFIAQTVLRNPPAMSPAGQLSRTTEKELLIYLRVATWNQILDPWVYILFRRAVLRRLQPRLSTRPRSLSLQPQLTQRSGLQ

[4] = molecular target: T3, 5-hydroxytryptamine receptor 2B; format: functional, cell-based; remark: listed apart in the source
Acetylcholinesterase = Acetylcholinesterase (Homo sapiens, UniProt P22303); format: functional
Acetylcholinesterase, sequence (P22303 whole entry): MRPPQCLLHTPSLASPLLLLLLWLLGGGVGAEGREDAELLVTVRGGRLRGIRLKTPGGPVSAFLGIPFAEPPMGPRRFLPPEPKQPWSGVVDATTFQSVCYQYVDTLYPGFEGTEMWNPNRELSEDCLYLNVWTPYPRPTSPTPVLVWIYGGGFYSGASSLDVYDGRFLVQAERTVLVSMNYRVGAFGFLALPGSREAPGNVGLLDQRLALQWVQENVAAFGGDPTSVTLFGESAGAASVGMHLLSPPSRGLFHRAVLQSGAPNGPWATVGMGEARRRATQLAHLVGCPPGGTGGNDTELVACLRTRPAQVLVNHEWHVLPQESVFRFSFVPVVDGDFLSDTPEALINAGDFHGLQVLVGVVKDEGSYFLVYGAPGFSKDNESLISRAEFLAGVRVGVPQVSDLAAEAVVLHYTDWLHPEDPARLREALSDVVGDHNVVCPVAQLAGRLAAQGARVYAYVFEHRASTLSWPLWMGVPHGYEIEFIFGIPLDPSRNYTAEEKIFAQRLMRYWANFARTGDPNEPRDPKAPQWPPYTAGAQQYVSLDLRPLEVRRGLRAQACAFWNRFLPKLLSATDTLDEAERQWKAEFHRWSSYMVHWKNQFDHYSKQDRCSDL

[5] = molecular target: Sodium-dependent dopamine transporter (Homo sapiens, UniProt Q01959)
Sodium-dependent dopamine transporter, sequence (Q01959 whole entry): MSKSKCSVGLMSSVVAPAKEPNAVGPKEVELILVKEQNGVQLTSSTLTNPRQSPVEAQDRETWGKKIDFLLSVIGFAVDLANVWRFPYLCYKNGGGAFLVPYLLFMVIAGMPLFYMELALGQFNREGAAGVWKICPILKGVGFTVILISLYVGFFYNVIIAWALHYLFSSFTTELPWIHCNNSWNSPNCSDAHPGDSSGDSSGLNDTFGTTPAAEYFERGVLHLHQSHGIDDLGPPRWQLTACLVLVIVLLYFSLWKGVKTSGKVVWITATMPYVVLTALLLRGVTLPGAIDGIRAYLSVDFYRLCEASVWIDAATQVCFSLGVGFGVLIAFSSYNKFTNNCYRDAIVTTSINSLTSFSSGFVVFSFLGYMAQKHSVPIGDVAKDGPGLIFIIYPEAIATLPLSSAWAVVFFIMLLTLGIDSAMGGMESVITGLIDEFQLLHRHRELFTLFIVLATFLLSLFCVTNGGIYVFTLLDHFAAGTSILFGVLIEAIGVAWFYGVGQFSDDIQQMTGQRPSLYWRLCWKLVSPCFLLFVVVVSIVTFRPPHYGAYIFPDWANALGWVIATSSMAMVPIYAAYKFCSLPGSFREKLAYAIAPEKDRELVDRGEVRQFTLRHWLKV

[6] = molecular target: Prostaglandin G/H synthase 1 (Homo sapiens, UniProt P23219); format: functional
Prostaglandin G/H synthase 1, sequence (P23219 whole entry): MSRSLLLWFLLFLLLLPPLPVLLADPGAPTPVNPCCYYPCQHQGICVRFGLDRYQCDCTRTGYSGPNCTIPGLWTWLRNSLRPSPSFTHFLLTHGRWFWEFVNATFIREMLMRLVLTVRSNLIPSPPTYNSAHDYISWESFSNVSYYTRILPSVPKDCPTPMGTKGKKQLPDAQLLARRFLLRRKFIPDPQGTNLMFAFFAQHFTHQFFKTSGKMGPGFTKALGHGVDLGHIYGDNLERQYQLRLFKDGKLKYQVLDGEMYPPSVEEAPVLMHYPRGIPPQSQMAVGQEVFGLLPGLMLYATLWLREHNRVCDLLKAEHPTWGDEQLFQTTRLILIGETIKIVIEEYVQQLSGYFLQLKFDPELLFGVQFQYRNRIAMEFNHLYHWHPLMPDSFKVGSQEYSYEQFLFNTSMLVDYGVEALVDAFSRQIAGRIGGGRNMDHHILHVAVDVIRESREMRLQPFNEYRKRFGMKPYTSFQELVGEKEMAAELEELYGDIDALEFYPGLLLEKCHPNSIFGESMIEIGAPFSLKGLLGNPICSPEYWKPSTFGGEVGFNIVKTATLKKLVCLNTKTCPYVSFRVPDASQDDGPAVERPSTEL
Note: assay procedure not described here.

AC50 [1] | AC50 (Histamine H2 receptor) | AC50 [2] | AC50 (Histamine H3 receptor) | AC50 (Cannabinoid receptor 1) | AC50 (Mu-type opioid receptor) | AC50 [3] | Compound | AC50 (Progesterone receptor) | AC50 (Thromboxane A2 receptor) | AC50 [4] | AC50 (Acetylcholinesterase) | AC50 [5] | AC50 [6]
> 30 µM | > 30 µM | > 30 µM | > 30 µM | – | – | – | CCCCN1C[C@H](O)[C@@H](O)[C@H](O)[C@H]1CO | > 30 µM | – | – | – | – | –
> 30 µM | > 30 µM | > 30 µM | > 30 µM | > 30 µM | – | – | CC(=O)NCCCS(=O)(=O)O [ACAMPROSATE] | > 30 µM | – | – | – | – | –
– | > 30 µM | > 30 µM | > 30 µM | > 30 µM | – | – | COc1cc2nc(N(C)CCCNC(=O)C3CCCO3)nc(N)c2cc1OC (stereo not given) [ALFUZOSIN] | > 30 µM | – | – | – | – | –
– | – | – | – | – | – | – | COC(c1ccccc1)(c1ccccc1)[C@H](Oc1nc(C)cc(C)n1)C(=O)O [AMBRISENTAN] | – | > 30 µM | > 30 µM | > 30 µM | > 30 µM | > 30 µM
– | – | – | – | – | – | – | CN(C)CCn1nnnc1SCC1=C(C(=O)O)N2C(=O)[C@@H](NC(=O)Cc3csc(N)n3)[C@H]2SC1 [CEFOTIAM] | – | > 30 µM | > 30 µM | > 30 µM | > 30 µM | > 30 µM
> 30 µM | > 30 µM | – | > 10 µM | > 30 µM | – | 5.78 µM | CC1=C(C(=O)O)N2C(=O)[C@@H](NC(=O)[C@H](N)c3ccccc3)[C@H]2SC1 [CEPHALEXIN ANHYDROUS] | – | – | – | – | – | –
– | > 10 µM | > 10 µM | – | – | > 30 µM | > 10 µM | CN(C)/N=N/c1[nH]cnc1C(N)=O [DACARBAZINE] | > 10 µM | – | – | – | – | –
– | – | – | – | – | – | – | C[C@]12CC[C@@H]3c4ccc(O)cc4CC[C@H]3[C@@H]1C[C@@H](O)[C@@H]2O [ESTRIOL] | – | > 30 µM | > 30 µM | > 30 µM | 28.7 µM | > 30 µM
> 30 µM | > 10 µM | > 30 µM | > 30 µM | > 30 µM | > 10 µM | > 10 µM | CCC(C)n1ncn(-c2ccc(N3CCN(c4ccc(OCC5COC(Cn6cncn6)(c6ccc(Cl)cc6Cl)O5)cc4)CC3)cc2)c1=O (stereo not given) [ITRACONAZOLE] | > 30 µM | – | – | – | – | –
> 30 µM | > 10 µM | > 10 µM | > 10 µM | > 30 µM | > 30 µM | > 10 µM | CN1C(C(=O)Nc2ccccn2)=C(O)c2sc(Cl)cc2S1(=O)=O [LORNOXICAM] | – | – | – | – | – | –
– | > 10 µM | > 10 µM | – | – | > 30 µM | > 10 µM | Clc1ccc(C(c2ccccc2Cl)C(Cl)Cl)cc1 (stereo not given) [MITOTANE] | 0.45 µM | – | – | – | – | –
– | – | – | – | – | – | – | CC(C)(S)[C@@H](N)C(=O)O [PENICILLAMINE] | – | > 30 µM | > 30 µM | > 30 µM | > 30 µM | –
> 30 µM | > 30 µM | 11 µM | > 30 µM | – | – | 13 µM | COc1ccccc1OCC(O)CN1CCN(CC(=O)Nc2c(C)cccc2C)CC1 (stereo not given) [RANOLAZINE] | > 30 µM | – | – | – | – | –
0.0098 µM | 0.93 µM | > 30 µM | > 10 µM | > 30 µM | > 30 µM | 3.9 µM | Clc1ccc2nsnc2c1NC1=NCCN1 [TIZANIDINE] | – | – | – | – | – | –
– | – | – | – | – | – | – | CCOC(=O)[C@H](CCc1ccccc1)N[C@@H](C)C(=O)N1[C@H](C(=O)O)C[C@H]2CCCC[C@@H]21 [TRANDOLAPRIL] | – | > 30 µM | > 30 µM | > 30 µM | > 30 µM | > 30 µM
> 30 µM | > 10 µM | > 10 µM | – | > 30 µM | > 30 µM | > 10 µM | Nc1ccn([C@H]2CC[C@@H](CO)O2)c(=O)n1 [ZALCITABINE] | – | – | – | – | – | –
– | > 10 µM | > 10 µM | > 10 µM | – | > 30 µM | > 10 µM | NS(=O)(=O)Cc1noc2ccccc12 [ZONISAMIDE] | > 10 µM | – | – | – | – | –

Compound | AC50 [1] | AC50 (Histamine H2 receptor) | AC50 [2] | AC50 (Histamine H3 receptor) | AC50 (Cannabinoid receptor 1) | AC50 (Mu-type opioid receptor) | AC50 [3] | AC50 (Progesterone receptor) | AC50 (Thromboxane A2 receptor) | AC50 [4] | AC50 (Acetylcholinesterase) | AC50 [5] | AC50 [6]
CCCSc1ccc2nc(NC(=O)OC)[nH]c2c1 [ALBENDAZOLE] | – | > 10 µM | > 10 µM | – | – | > 30 µM | > 10 µM | > 10 µM | – | – | – | – | –
C=CCc1ccccc1OCC(O)CNC(C)C (stereo not given) [ALPRENOLOL] | > 30 µM | > 30 µM | 16 µM | > 30 µM | > 30 µM | – | – | > 30 µM | > 0.3 µM | > 0.3 µM | > 0.3 µM | > 0.3 µM | > 0.3 µM
CN1C(=O)CCS(=O)(=O)C1c1ccc(Cl)cc1 (stereo not given) [CHLORMEZANONE] | – | > 30 µM | > 10 µM | – | – | > 30 µM | > 30 µM | > 10 µM | – | – | – | – | –
O=P1(NCCCl)OCCCN1CCCl (stereo not given) [IFOSFAMIDE] | – | > 30 µM | > 30 µM | > 30 µM | – | – | > 30 µM | > 30 µM | – | – | – | – | –
Cc1cccc(Nc2ccccc2C(=O)O)c1C [MEFENAMIC ACID] | – | > 10 µM | > 10 µM | > 10 µM | – | > 30 µM | > 10 µM | > 10 µM | > 30 µM | > 30 µM | > 30 µM | > 30 µM | 0.0343 µM
CC1(C)NC(=O)N(c2ccc([N+](=O)[O-])c(C(F)(F)F)c2)C1=O [NILUTAMIDE] | – | > 30 µM | > 30 µM | > 30 µM | – | – | > 30 µM | > 30 µM | > 30 µM | > 30 µM | > 30 µM | > 30 µM | > 30 µM
COc1ccc(CC(C)(C)NC[C@H](O)c2cc(O)cc3c2OCC(=O)N3)cc1 [OLODATEROL] | > 30 µM | – | 6.65 µM | > 30 µM | > 30 µM | > 30 µM | – | > 30 µM | – | – | – | – | –
Cc1cn([C@H]2C=C[C@@H](CO)O2)c(=O)[nH]c1=O [STAVUDINE] | > 30 µM | > 10 µM | > 10 µM | > 30 µM | > 30 µM | > 30 µM | 29.9 µM | – | > 30 µM | > 30 µM | > 30 µM | > 30 µM | > 30 µM
O=C(O[C@H]1C[C@H]2CC[C@@H](C1)[N+]21CCCC1)C(O)(c1ccccc1)c1ccccc1 [TROSPIUM] | > 30 µM | > 30 µM | > 30 µM | > 30 µM | – | – | – | > 30 µM | – | – | – | – | –
